{
  "source": "paper PMC6615598",
  "about": "“Novel antibiotics effective against gram-positive and -negative multi-resistant bacteria with limited resistance” (PLoS Biology, 2019)",
  "key": {"MRSA [1]": {"tested_on": "MRSA", "experiment": "In vivo resistance: kidney extracts plated on plates containing 1- to 8-fold peptide MIC (severe sepsis)", "type": "cell-based, S. aureus", "conditions": "kidneys at day 7 after repeated treatments, plates with drug at 2-fold MIC", "protocol": "For 15 d in MHB, MICs were determined daily for each pseudopeptide and their antibiotic controls. This was done using cells from the well in which the compound concentration was one-half of the MIC (1/2MIC). For each compound, the 1/2MIC well from the previous day’s MIC assay plate was re-suspended and the bacteria grown to a density of about 10^8 cells ml−1. The suspension was diluted in MHB or CAMHB (10^6 cells/ml) and then used to determine the MIC of the same compound determined by micro broth dilution. All MIC measurements were performed in duplicate. Aliquots of the 5 × 10^4 cell/ml dilutions for each 1/2MIC well were periodically plated on MHB and incubated at 35°C for 18 h to verify cell density by colony counts and for visual inspection of colony phenotypes. To control compound stability, peptide solution MICs were determined during and at the end of the 15 d and were compared to cells unexposed to antibiotics. In vivo resistance was also assessed in treated mice (1.5 mg.kg^−1) for 4 d (sepsis) or 6 d (skin abscesses). […] For severe sepsis and subcutaneous abscesses, in vivo resistance was determined by plating aliquots of crude kidney extracts or abscesses on plates containing 1-, 2-, 4-, or 8-fold the peptide MICs 7 or 3 d post infections, respectively."}, "MRSA [2]": {"tested_on": "MRSA", "experiment": "Severe sepsis mouse model, survival", "type": "in vivo", "conditions": "mice, approximately 2 × 10^9 CFUs MRSA IV; 4 IV doses of 0.5 mg.kg^−1 at 2, 24, 48, 72 h", "source_text": "Tolerance and toxicity studies were done on male Swiss mice (CD-1 Crl: CD-1 [ICR] IGS; Charles River). These were 7 to 10 weeks old and weighed an average of 37.2 g. All experimental protocols were approved by the Adaptive Therapeutics Animal Care and Use Committee (APAFiS #4508-2016031l15541258 v2). For the sepsis model, we used female Swiss mice (Janvier Labs), 6 to 8 weeks old and weighing approximately 30 g. Experiments were monitored in the ARCHE-BIOSIT animal lab in Rennes, in biological duplicate. We used Groups of 5 mice for the mild and the severe sepsis models with MRSA. Mice were IV inoculated with 150 μl of MRSA suspensions in 0.9% NaCl containing approximately 5 × 10^8 CFUs for the “mild” sepsis and approximately 2 × 10^9 CFUs for the “severe” sepsis, respectively. […] Mice survival was monitored for 4 d (“severe” sepsis) or 14 d (“mild” sepsis), and the statistical significance of difference(s) between the groups was evaluated using the Wilcoxon test. P < 0.05 was considered significant. Two weeks (“mild” sepsis) or 4 d (“severe” sepsis) after inoculation, mice were euthanized with CO2."}, "P. aeruginosa LESB58": {"tested_on": "P. aeruginosa LESB58", "conditions": "LESB58", "protocol": "(10−4 M final concentrations). At selected time intervals, 100 μl of reaction mixture was collected, quenched by 200 μl 95% EtOH, and adjusted at pH 2 to prevent peptide adsorption to serum proteins. […] Supernatants were analyzed by RP-HPLC on an Xbridge C18 column with a linear gradient of water, 0.08% TFA, and acetonitrile with 1% TFA. HPLC peak areas were used to calculate the percentages of intact compound remaining at the various time points. MIC and MBC values were determined in triplicate in many ESKAPE clinical isolates, including a dozen MDR S. aureus, by the broth microdilution method. Peptidomimetics and antibiotics were assayed in a concentration range of 1 to 128 μM. […] After every hour of culture for 4 h, serial dilutions were plated on BHI plates and incubated overnight at 37°C, and then the CFUs were counted and expressed as log CFU/ml. […]\nFor 15 d in MHB, MICs were determined daily for each pseudopeptide and their antibiotic controls. […] The suspension was diluted in MHB or CAMHB (10^6 cells/ml) and then used to determine the MIC of the same compound determined by micro broth dilution. […] To control compound stability, peptide solution MICs were determined during and at the end of the 15 d and were compared to cells unexposed to antibiotics. In vivo resistance was also assessed in treated mice (1.5 mg.kg^−1) for 4 d (sepsis) or 6 d (skin abscesses). […]"}, "E. coli ML-35p": {"tested_on": "E. coli ML-35p", "experiment": "Inner membrane permeability, ONPG cleavage", "type": "cell-based", "conditions": "concentration near MIC", "protocol": "Outer and inner membrane permeability was determined on E. coli ML-35p, a lactose permease-deficient strain [8]. Permeation assays were carried out on 100 μl MHB from bacteria cultures grown to 0.15 OD600 (10^7 CFU/ml). Nitrocefin (20 μg/ml) was added to the tested molecules at a concentration near to their MICs, and cleavage was monitored by light absorption at 500 nm (outer membrane monitoring). Inner membrane monitoring of cleavage of ONPG (100 μg/ml) and substrate was monitored at 420 nm. Polymyxin B was a positive control, while a bacterial suspension in MHB was the negative control. Permeation assays were also performed on gram-positive S. aureus membranes (MSSA and MRSA) by fluorescence assay with SYTO Green nucleic acid stain (Life Technologies) in black flat-bottom 96-well microtiter plates (Greiner) in biological triplicate. Bacteria were grown to 0.3–0.4 OD600 in CAMHB at 37°C and centrifuged at 3,500 tr/min for 10 min. The pellet was washed and dissolved in PBS to an absorbance of 0.4 at 600 nm (approximately 2.10^8 CFU/ml). […] The amount of 50 μL of bacteria/SYTO Green mixture was added to each well containing compounds serially diluted in PBS, and fluorescence was measured at 37°C for up to 12 h using a spectrophotometer (BIOTEK, Tungsten-Halogen Lamp) with 485 nm excitation and 525 nm emission wavelengths."}, "MRSA (Mu3)": {"tested_on": "MRSA (Mu3)", "experiment": "microbe, parasite or virus in culture", "conditions": "15 colonies", "protocol": "For 15 d in MHB, MICs were determined daily for each pseudopeptide and their antibiotic controls. This was done using cells from the well in which the compound concentration was one-half of the MIC (1/2MIC). For each compound, the 1/2MIC well from the previous day’s MIC assay plate was re-suspended and the bacteria grown to a density of about 10^8 cells ml−1. The suspension was diluted in MHB or CAMHB (10^6 cells/ml) and then used to determine the MIC of the same compound determined by micro broth dilution. All MIC measurements were performed in duplicate. Aliquots of the 5 × 10^4 cell/ml dilutions for each 1/2MIC well were periodically plated on MHB and incubated at 35°C for 18 h to verify cell density by colony counts and for visual inspection of colony phenotypes. To control compound stability, peptide solution MICs were determined during and at the end of the 15 d and were compared to cells unexposed to antibiotics. In vivo resistance was also assessed in treated mice (1.5 mg.kg^−1) for 4 d (sepsis) or 6 d (skin abscesses). […] The broth microdilution method was performed as per EUCAST recommendations on 5 independent colonies per mouse (3 mice per set, 15 colonies per drug tested). For severe sepsis and subcutaneous abscesses, in vivo resistance was determined by plating aliquots of crude kidney extracts or abscesses on plates containing 1-, 2-, 4-, or 8-fold the peptide MICs 7 or 3 d post infections, respectively."}},
  "note": "Starred links: 1 amine or outer side, 2 acyl side, 3 side chain; linkers in the order of their positions; H or OH if unused. Non-standard residues stand in square brackets, D forms with d. Residues, ends and D or L forms follow the SMILES beside them. azaβ3(1Nal) = O=C(CN(Cc1cccc2ccccc12)N[*:1])[*:2]",
  "data": [
    {"smiles": "CC(C)[C@@H]1NC(=O)[C@H](CCCNC(=N)N)NC(=O)[C@H](CCCNC(=N)N)NC(=O)CN(Cc2cccc3ccccc23)NC(=O)[C@H](Cc2ccccc2)NC(=O)CN(Cc2cccc3ccccc23)NC(=O)[C@H](CCCCN)NC1=O", "note": "[Pep19] (cyclo([azaβ3(1Nal)]F[azaβ3(1Nal)]RRVK))", "values": [
      {"measurement": "Clones with increased resistance from kidneys", "setting": "MRSA [1]", "result": "no clones with increased resistances were detected"},
      {"measurement": "Survival in severe sepsis", "setting": "MRSA [2]", "result": "protected the infected animals"},
      {"measurement": "MIC", "setting": "P. aeruginosa LESB58", "result": 4, "unit": "µM"},
      {"measurement": "Inner membrane permeation", "setting": "E. coli ML-35p", "result": "most active"},
      {"measurement": "MIC", "setting": "MRSA (Mu3); MRSA colonies from kidneys of septic mice, d4, single IV 1.5 mg.kg^−1 at 3 h or 15 h", "result": "8 (8.8) μM"},
      {"measurement": "MIC", "setting": "MRSA (Mu3); MRSA colonies from mice skin abscess, d6, single IV 1.5 mg.kg^−1 at 24 h", "result": "16 (16.2) μM"}
    ]}
  ]
}
